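These data come from cells grown in 96-well plates and exposed to compound for 48 hours at five concentrations. TGI is the concentration that stops growth completely.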
Columns and labels:
Assay in all cases: inhibition of tumour cell growth, NCI panel, 48 h
DLD-1 colon = test system: DLD-1 colon
SNB-78 CNS = test system: SNB-78 CNS
XF 498 CNS = test system: XF 498 CNS
HOP-18 NSCLC = test system: HOP-18 NSCLC
KM20L2 colon = test system: KM20L2 colon
LXFL 529 NSCLC = test system: LXFL 529 NSCLC
DMS 114 small cell lung = test system: DMS 114 small cell lung
DMS 273 small cell lung = test system: DMS 273 small cell lung
RXF-631 renal = test system: RXF-631 renal

| Compound | TGI (DLD-1 colon) [µM] | TGI (SNB-78 CNS) [µM] | TGI (XF 498 CNS) [µM] | TGI (HOP-18 NSCLC) [µM] | TGI (KM20L2 colon) [µM] | TGI (LXFL 529 NSCLC) [µM] | TGI (DMS 114 small cell lung) [µM] | TGI (DMS 273 small cell lung) [µM] | TGI (RXF-631 renal) [µM] |
| --- | --- | --- | --- | --- | --- | --- | --- | --- | --- |
| O=C1CCCCC1C1(O)C(=O)Nc2cc(F)ccc21 (stereo not given) | > 100 | > 100 | > 100 | > 100 | > 100 | > 100 | > 100 | > 100 | – |
| Cc1ccc(/C=C/C(=O)c2sc(C(N)=S)nc2C)cc1 | > 100 | > 100 | – | > 100 | > 100 | – | – | > 100 | – |
| CSc1nc2nc(C)c(C)nc2c(=O)[nH]1 | > 100 | – | > 100 | > 100 | > 100 | > 100 | > 100 | > 100 | – |
| COc1ccc(NC(=O)CSc2nnc(Cc3ccccc3)o2)cc1 | > 100 | > 100 | – | > 100 | > 100 | > 100 | > 100 | > 100 | – |
| COc1ccc(Cc2cc(OC)c(OC)c(OC)c2)cc1O | > 100 | – | > 100 | > 31.6 | > 100 | > 100 | 0.137 | > 100 | > 100 |
| N#Cc1ccc(Nc2cnc3cc(N)ccc3n2)cc1 | > 100 | > 100 | > 100 | – | > 100 | > 100 | > 100 | > 100 | – |
| CNC(=S)NNC(=O)c1c(C)nc2sccn12 | > 100 | – | > 100 | > 100 | > 100 | > 100 | – | > 100 | > 100 |
| COC(=O)C(CCC1(C)OCCO1)C(C)=O (stereo not given) | > 100 | > 100 | > 100 | > 100 | > 100 | > 100 | > 100 | > 100 | > 100 |
| COC1=C(C)C(=O)C2C(C1=O)C(c1ccc(OC)c(OC)c1)[C@H]2C (stereo not given in full) | > 100 | > 100 | > 100 | – | – | > 100 | – | > 100 | > 100 |
| Cc1cc(=O)cc2sc3cc(Cl)ccc3nc1-2 | > 100 | > 100 | 31.3 | > 100 | 30.1 | > 100 | – | 24.6 | – |
| CCOC(=O)[C@H](Cc1ccccc1)NC(=O)c1nc[nH]c1[N+](=O)[O-] | > 100 | – | – | – | – | > 100 | > 100 | > 100 | – |

Reference: PubChem BioAssay (NCI)
